According to patent publication US20260258039A1, “AROMATIC COMPOUND, METHOD FOR PREPARING SAME, AND USE THEREOF IN PREPARATION OF ESTROGEN RECEPTOR DEGRADER” (Hinova Pharmaceuticals Inc., priority 2022, published 2026):
Where two headings read alike, the source gives them in different places.

Assays:
ER = biological target: T1, ER (Homo sapiens, UniProt P03372); test: Degradation activities on ER (ELISA) in T47D breast cancer cells; format: cell-based; conditions: T47D cells, 24 h, ELISA; for DC50: concentration required to degrade 50% of the target protein; for Dmax: maximum percentage of target protein degraded
T1 construct: T47D breast cancer cells were subcultured in cell culture medium; endogenous in cells; host or cells: T47D breast cancer cells
T1 sequence (P03372 1-595): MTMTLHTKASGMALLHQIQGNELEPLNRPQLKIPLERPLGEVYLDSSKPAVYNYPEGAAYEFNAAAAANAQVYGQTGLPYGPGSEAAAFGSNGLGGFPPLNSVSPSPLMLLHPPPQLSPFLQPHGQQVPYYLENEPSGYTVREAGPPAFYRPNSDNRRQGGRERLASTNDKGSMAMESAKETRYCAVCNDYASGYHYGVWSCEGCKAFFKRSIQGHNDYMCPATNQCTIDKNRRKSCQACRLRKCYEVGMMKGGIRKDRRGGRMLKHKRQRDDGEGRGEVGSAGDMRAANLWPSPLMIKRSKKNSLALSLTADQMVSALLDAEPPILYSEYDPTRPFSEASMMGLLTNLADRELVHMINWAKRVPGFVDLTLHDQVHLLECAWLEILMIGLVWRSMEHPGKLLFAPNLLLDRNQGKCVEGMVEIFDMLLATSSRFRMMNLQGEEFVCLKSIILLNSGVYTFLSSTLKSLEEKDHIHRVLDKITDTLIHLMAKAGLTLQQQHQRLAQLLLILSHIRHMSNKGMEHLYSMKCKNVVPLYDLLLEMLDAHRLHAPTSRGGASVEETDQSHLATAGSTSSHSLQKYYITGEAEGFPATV
Protocol: T47D breast cancer cells were subcultured in cell culture medium, and then the cells in good growth condition were seeded into 96-well plates at 80 µL/well, with 2.5×10^4 cells per well. The cells were incubated in a 37° C., 5% CO2 incubator for 3 days. The drug was prepared into a 10 mM stock solution with dimethyl sulfoxide (DMSO). Prior to use, the stock solution was diluted with cell culture medium to obtain six final concentrations (100 nM, 25 nM, 6.25 nM, 1.56 nM, 0.39 nM, and […]), and gently mixed. Additionally, negative control wells (only containing culture medium) and positive control wells (only containing cells and DMSO) were included. After the cells were incubated in the incubator for 24 h, the cells were rinsed once with ice-cold 1×PBS. […] The plate was sealed with plastic film, and incubated in a 37° C. incubator for 2 h. The film was removed. 200 μL of 1× washing buffer was added to each well, and then the plate was shaken for 5 min. The washing buffer was discarded, and the plate was pat-dried. The plate was washed four times. 100 μL of freshly prepared detection antibody (green) was added to each well of the ELISA plate. The plate was sealed with plastic film, and then incubated in a 37° C. incubator for 1 h. The film was removed, and the detection antibody was discarded. The plate was pat-dried. 200 μL of 1× washing buffer was added to each well, and then the plate was shaken for 5 min. The washing buffer was discarded, and the plate was pat-dried. The plate was washed four times. 100 μL of freshly prepared HRP-labeled secondary antibody (red) was added to each well of the ELISA plate. The plate was sealed with plastic film, and incubated in a 37° C. incubator for 30 min. The film was removed, the secondary antibody was discarded, and the plate was pat-dried, followed by adding 200 μL of 1× washing buffer to each well. The plate was shaken for 5 min, and the washing buffer was discarded before pat-drying the plate. The plate was washed four times. 100 μl of TMB substrate was added to each well of the ELISA plate, followed by incubating in a 37° C. incubator for 5 min. 100 μL of STOP solution was added to each well of the ELISA plate, and the plate was gently shaken for a few seconds. The bottom of each well was wiped with lint-free cloth. Within 30 min after adding the STOP solution, the absorbance was read at 450 nm. […] The data were analyzed using the Dose-response equation in GraphPad Prism8 software to obtain the DC50 and Dmax values, and both of them are important indicators for measuring the degradation activities of compounds on target proteins. […] The Dmax value represents the maximum percentage of target protein that can be degraded by the compound.

[1] = system: MCF-7 breast cancer cells; test: Inhibition of proliferation of MCF-7 breast cancer cells (agarose culture, CellTiter-Glo 3D); format: cell-based; conditions: MCF-7 cells, 15 days of cultivation, read-out: IC50
Protocol: After 1.6% agarose and 0.7% agarose were sterilized at high temperature, they were cooled to around 50° C., and placed in a 42° C. water bath for later use. MCF-7 breast cancer cells were subcultured in complete cell culture medium, and cells in good growth condition were digested and counted for future use. 50 µL of 1.6% agarose mixed with 2× culture medium at a ratio of 1:1 was spread into the bottom of 96-well plate, and allowed to cool and solidify. 0.7% agarose was mixed with diluted cell suspension in a ratio of 1:1, and then 50 µL of the mixture of gel and cells was added to each well, with 2000 cells for each well; the mixture was allowed to cool and solidify at room temperature. 50 μL of culture medium was added to the plate containing cells, and the plate was placed in a 37° C., 5% CO2 incubator and cultured for 24 h. The drug was prepared into 10 mM stock solution with dimethyl sulfoxide (DMSO). The stock solution was diluted in a ratio of 1:3, to obtain 9 concentration gradients. Then, each concentration of compound solution was further diluted with culture medium in 1:250 (to ensure a DMSO concentration of 0.1% in the culture system). Two replicate wells was set for each concentration. 50 μL of the diluted compound solution was added to the cell culture wells (with final concentrations of 10 μM, 3.3 μM, 1.1 μM, 0.37 μM . . . ). The plate was gently shaken for mixing. Additionally, 3 negative control wells only containing cells and 3 blank control wells only containing culture medium were set up (each of the 6 wells was added with 50 μL of DMSO diluted with culture medium in a ration of 1:250). After 15 days of cultivation, the cell plates and CellTiter-Glo 3D Cell Viability were taken out and equilibrated to room temperature in advance. 80 μL of culture medium were aspirated and discarded from the cell plate, and 120 µL of CellTiter-Glo 3D Cell Viability solution was added to each well. The plates were centrifuged at 1200 rpm/min for 5 min, and then placed in the dark and kept for 25 min. The […] were measured using a multi-function microplate reader. The data were analyzed using the Dose-response-inhibition equation in GraphPad Prism8 software, and the IC50 values were obtained, as shown in Table 3.

SMILES	DC50 (ER) [nM]	Dmax (ER)	IC50 [1] [nM]	IC50 ([1]; Homo sapiens, MCF7, 360 h) [nM]	Dmax (ER; read-out: Dmax) [%]
O=C1CCC(N2Cc3cc(N4CC5(CCN(CC6CCN(c7ccc([C@H]8c9ccc(O)cc9OC[C@H]8c8ccccc8F)cc7F)CC6)CC5)C4)ccc3C2=O)C(=O)N1 (relative stereo) [Example 87, 3-(5-(7-((1-(2-fluoro-4-(cis-3-(2-fluorophenyl)-7-hydroxybenzopyran-4-yl)phenyl)piperidin-4-yl)methyl)-2,7-diazaspiro[3.5]nonane-2-yl)-1-oxoisoinodolin-2-yl)piperidin-2,6-dione]	< 10	B (B: 75-50%)	< 10		
O=C1CCC(NC(=O)c2ccc(N3CC4(CCN(CC5CCN(c6ccc([C@@H]7c8ccc(O)cc8OC[C@@H]7c7ccccc7F)cc6)CC5)CC4)C3)cc2F)C(=O)N1 (relative stereo) [Example 103, N-(2,6-dioxopiperidin-3-yl)-2-fluoro-4-(7-((1-(4-(cis-3-(2-fluorophenyl)-7-hydroxychroman-4-yl)phenyl)piperidin-4-yl)methyl)-2,7-diazaspiro[3.5]nonane-2-yl)benzamide]				> 50	
O=C1CCC(N2Cc3cc(N4CC5(CCN(CC6CCN(c7ccc([C@@H]8c9ccc(O)cc9OC[C@@H]8c8ccc(F)cc8)cc7)CC6)CC5)C4)ccc3C2=O)C(=O)N1 (stereo partly drawn) [Example 9, 3-(5-(7-((1-(4-(cis-3-(4-fluorophenyl)-7-hydroxyltryptophane-4-yl)phenyl)piperidin-4-yl)methyl)-2,7-diazaspiro[3.5]nonane-2-yl)-1-oxoisoinodolin-2-yl)piperidin-2,6-dione]	< 10			11 to 50	50 to 75
O=C1CCC(N2Cc3cc(N4CCC(N5CC6(CCN(c7ccc([C@@H]8c9ccc(O)cc9OC[C@@H]8c8ccccc8F)cc7)CC6)C5)CC4)ccc3C2=O)C(=O)N1 (stereo partly drawn) [Example 14, 3-(5-(4-(7-(4-((3S, 4R)-3-(2-fluorophenyl)-7-hydroxychroman-4-yl)phenyl)-2,7-diazaspiro[3.5]nonane-2-yl)piperidin-1-yl)-1-oxoisoinodolin-2-yl)pyridine-2,6-dione]	< 10			< 10	> 75
O=C1CCC(N2Cc3cc(N4CC5(CCN(CC6CCN(c7ccc([C@@H]8c9ccc(O)cc9OC[C@@H]8c8cccc(F)c8F)cc7F)CC6)CC5)C4)ccc3C2=O)C(=O)N1 (stereo partly drawn) [Example 16, 3-(5-(7-((1-(4-((3S, 4R)-3-(2,3-difluorophenyl)-7-hydroxychroman-4-yl)-2-fluorophenyl)piperidin-4-yl)methyl)-2,7-diazaspiro[3.5]nonane-2-yl)-1-oxoisoinodolin-2-yl)piperidin-2,6-dione]	< 10			< 10	50 to 75
CC(C)C[C@H]1COc2cc(O)ccc2[C@H]1c1cc(F)c(N2CCC(CN3CCC4(CC3)CN(c3ccc5c(c3)CN(C3CCC(=O)NC3=O)C5=O)C4)CC2)c(F)c1 (stereo partly drawn) [Example 17, 3-(5-(7-((1-(2,6-difluoro-4-(cis-7-hydroxyl-3-isobutylchroman-4-yl)phenyl)piperidin-4-yl)methyl)-2,7-diazaspiro[3.5]nonane-2-yl)-1-oxoisoinodolin-2-yl)piperidin-2,6-dione]	< 10			11 to 50	50 to 75
O=C1CCC(N2Cc3cc(N4CC5(CCN(CC6CCN(c7ccc(C8=C(c9c(F)cccc9F)COc9cc(O)ccc98)cc7)CC6)CC5)C4)ccc3C2=O)C(=O)N1 (centres unmarked) [Example 18, 3-(5-(7-((1-(4-(3-(2,6-difluorophenyl)-7-hydroxyl-2H-chromene-4-yl)phenyl)piperidin-4-yl)methyl)-2,7-diazaspiro[3.5]nonane-2-yl)-1-oxoisoinodolin-2-yl)piperidin-2,6-dione]	< 10	A (A: >75%)	< 10		
O=C1CC[C@H](N2Cc3cc(N4CC5(CCN(CC6CCN(c7ccc([C@@H]8c9ccc(O)cc9OC[C@@H]8c8c(F)cccc8F)cc7)CC6)CC5)C4)ccc3C2=O)C(=O)N1 [Example 78, (S)-3-(6-(7-((1-(4-((3S,4R)-3-(2,6-difluorophenyl)-7-hydroxychroman-4-yl)phenyl)piperidin-4-yl)methyl)-2,7-diazaspiro[3.5]nonane-2-yl)-1-oxoisoinodolin-2-yl)piperidin-2,6-dione]				< 10	
[2H]C1(N2Cc3cc(N4CC5(CCN(CC6CCN(c7ccc([C@@H]8c9ccc(O)cc9OC[C@@H]8c8c(F)cccc8F)cc7F)CC6)CC5)C4)ccc3C2=O)CCC(=O)NC1=O (stereo partly drawn) [Example 93, 3-deutero-3-(5-(7-((1-(4-((3S,4R)-3-(2,6-difluorophenyl)-7-hydroxychroman-4-yl)-2-fluorophenyl)piperidin-4-yl)methyl)-2,7-diazaspiro[3.5]nonane-2-yl)-1-oxoisoinodolin-2-yl)piperidin-2,6-dione]				11 to 50	
O=C1CCC(N2Cc3cc(N4CC5(CCN(CC6CCN(c7ccc([C@@H]8c9ccc(B(O)O)cc9OC[C@@H]8c8ccccc8F)cc7)CC6)CC5)C4)ccc3C2=O)C(=O)N1 (stereo partly drawn) [Example 101, (cis-4-(4-(4-((2-(2-(2,6-dioxopiperidin-3-yl)-1-oxoisoinodolin-5-yl)-2,7-diazaspiro[3.5]nonan-7-yl)methyl)piperidin-1-yl)phenyl)-3-(2-fluorophenyl)pyran-7-yl)boric acid]				11 to 50	
O=C1CCC(N2Cc3cc(N4CC5(CCN(CC6CCN(c7ccc([C@@H]8c9ccc(C(=O)O)cc9OC[C@@H]8c8ccccc8F)cc7)CC6)CC5)C4)ccc3C2=O)C(=O)N1 (stereo partly drawn) [Example 102, cis-4-(4-(4-((2-(2-(2,6-dioxopiperidin-3-yl)-1-oxoisoinodolin-5-yl)-2,7-diazaspiro[3.5]nonan-7-yl)methyl)piperidin-1-yl)phenyl)-3-(2-fluorophenyl)chroman-7-formic acid]				> 50	
